Test results from US9096543B2, “Nuclear transport modulators and uses thereof” (Karyopharm Therapeutics Inc., priority 2012, dated 2015).
“Also recorded” adds a separate entry of the source.

Tests used:
skin wounds = assay: Longitudinal full thickness skin incision wound model in mice; format: in vivo, C57BL/6J mice; settings: Day 5 post-wounding; oral 4 or 7.5 mg/kg every other day, or topical 1 or 2.5 μM daily
Excerpt: The effects of Compound 1 on skin wound healing were studied in a mouse longitudinal full thickness skin incision wound model. Upon arrival, animals were identified by ear tags, weighed and left to acclimate for several days before initiation of the experiment. On the day of wounding, mice were weighed and divided into 6 experimental groups with 6 animals per group, in accordance to weight differences stratified randomization. Prior to the surgical procedure, mice were anesthetized with isoflurane and the back of the animals was trimmed. Full thickness longitudinal incisions of 20 mm were performed using a standard scalpel blade on the backs of the animals (parallel to the backbone). Three hours after wounding, due to skin elasticity and activity of the animals, the incisions took on elliptical shapes. At this stage, the widest area of the wound was measured to establish a baseline wound width. Wound healing evaluation was made by measuring the widest area of the wound. Treatment groups consisted of oral gavage or topical groups. During the experiment, wounds were photo-documented and morphological analysis was performed. At the end of the experiment, 8 days post wounding, mice were sacrificed, wound widths were measured and biopsies of the wound area were collected and subjected to analysis.
Dosing solutions were prepared fresh on each day of dosing. […]

[1] = system: collagen-induced arthritis; assay: Collagen-Induced Arthritis (CIA) Study No. 2; format: in vivo, Lewis rats
Experimental: To further investigate the effect of the compounds described herein on inflammation biomarkers, a second CIA model was initiated. In this model, the groups were designated as group A (naïve), group B (model; vehicle-treated), group C (Compound 2 at 5 mg/kg QoD). The rats in groups B and C were immunized intradermally with bovine Type II collagen in IFA on day 0, and a booster injection was given on day 7. Compound 2 was orally administered to rats with CIA after the onset of arthritis (Day 11). CIA development was evaluated via macroscopic scoring and measurements of paw swelling. This was assessed every day for the first 5 days after sensitization (day 7), and then twice per week (Monday and Thursday) until Day 28 using the clinical scoring system described in Table 7 above. In addition, ELISAs for CD45, CRP, CCL2/MCP-1, RANKL, TNF-α, IL1-β, IL-6, IL-8, IL-15, IL-17, and measurements for cathepsin K and elastase were performed 4 days (Day 15 of the study) and 10 days (Day 21 of the study—peak for the disease) after compound treatment and at the very end of the study (Day 28) on all group animals. Additionally, on the last day of the study (Day 28), a few representative animals from each group were subjected to three-dimensional micro-tomodensitometry of calcaneus, and bone erosion was quantified.

Row | SMILES | wound morphology assessment (skin wounds) | joint swelling and clinical scores compared to vehicle-treated rats ([1]; 5 mg/kg QoD orally from Day 11) | bone erosion in the rear paws (micro CT, BMD) ([1]; 5 mg/kg QoD, Day 28)
1 | CC(C)(C)C(=O)NNC(=O)/C=C\n1cnc(-c2cc(C(F)(F)F)cc(C(F)(F)F)c2)n1 [Compound 1, (Z)-3-(3-(3,5-bis(trifluoromethyl)phenyl)-1H-1,2,4-triazol-1-yl)-N′-pivaloylacrylohydrazide] | positive effect; also recorded: displayed efficacy, and had a positive impact on wound healing; also recorded: better wound healing, as measured by wound size reduction and better scabbing properties | – | –
2 | O=C(/C=C\n1cnc(-c2cc(C(F)(F)F)cc(C(F)(F)F)c2)n1)NNC(=O)CN1CCOCC1 [Compound 2, (Z)-3-(3-(3,5-bis(trifluoromethyl)phenyl)-1H-1,2,4-triazol-1-yl)-N′-(2-morpholinoacetyl)acrylohydrazide] | – | significantly reduced joint swelling | significantly reduced bone erosion in the rear paws; also recorded: comparable to that of naïve animals
